Where “and” joins values, the source holds several entries; their conditions need not be identical. Equal values may be shown once.
Molecular target: T1, SBC2 (Homo sapiens, UniProt O14508)
T1 construct: SOCS2 (amino acids 32–198); His6 (N, cleaved yes); made in house; host or cells: E. coli BL21(DE3)
Test: Covalent fluorescence polarization (FP) probe displacement assay
Format: binding
Source text: With the specific covalent modification of Cys111 established, we decided to fully characterize MN551 as a covalent SOCS2 inhibitor. […] (Fig. 2g, h, Supplementary Fig. 9). Due to the covalent nature of the competing inhibitor, a time-dependent reduction in the fraction of protein-bound probe is observed. […] This value illustrates reasonable specificity for a covalent inhibitor, with nonetheless scope for future optimization. In addition to characterizing the kinetic covalency parameters, we have also assessed the stability of the MN551 by monitoring its reactivity (half-life >70 min) with reduced glutathione (GSH) (Supplementary Fig. 10)[35].
To monitor the SBC2-ligand binding kinetics we designed a fluorescein-labeled small-molecule probe - compound 26. The fluorescence polarization (anisotropy) of a threefold serial dilution of 50 µM SBC2 in 10 nM of the probe in 100 mM HEPES pH 7.5, 50 mM NaCl, 0.5 mM TCEP, 2% DMSO was measured to determine the KL (Supplementary Fig. 9A) (BMG Labtech PHERAstar – firmware v1.33). Protein titration and the curves were fitted using GraphPad Prism 9, using one-site fitting models to determine the probe binding constant, KL. Samples were run in triplicate in 384 well plates, using a total volume per well of 16 μL. The bound fraction of the probe is measure using the equation:1 Fb=Af−A/Af−Ab Where,
A time-dependent reduction in probe anisotropy were measured for a 2-fold serial dilution of […] compound MN551 in 10 nM probe +300 μM SBC2. To determine the initial reversible binding affinity, the initial bound fraction of the probe at time = 0, Fbo (the y-intercept in Fb v/s Time plot, Supplementary Fig. 9B) was plotted against MN551 concentration, and the obtained IC50 is then converted to Ki (Supplementary Fig. 9C)[17]. The slope from Fb versus time graph when divided by Fbo gives rate of covalency, kobs. A plot of kobs v/s MN551 concentration using Michaelis–Menten model of GraphPad Prism 9, provides the parameters kinact (maximum potential rate of inactivation) and KI (concentration of MN551 at which kobs = kinact/2) (Supplementary Fig. 9D, E).
The observed first-order rate constant, kobs is related to KI and kinact by the equation:2 kobs=kinactI/KI+I
At [I]«[KI] the above equation is converted to3 […]
The slope from the plot of kobs against concentration of MN551 gives us the covalent efficiency parameter kinact/KI (Supp Fig. 9F)[30],[33].

[1] = MN551 260.308 nM, Cycle 12 (55 min)
[2] = MN551 260.308 nM, Cycle 19 (90 min), n=1
[3] = MN551 364.432 nM, Cycle 6 (25 min)
[4] = MN551 364.432 nM, Cycle 12 (55 min)
[5] = MN551 364.432 nM, Cycle 19 (90 min), n=1
[6] = MN551 510.204 nM, Cycle 6 (25 min)
[7] = MN551 510.204 nM, Cycle 12 (55 min)
[8] = MN551 510.204 nM, Cycle 19 (90 min), n=1
[9] = MN551 714.286 nM, Cycle 6 (25 min)
[10] = MN551 714.286 nM, Cycle 12 (55 min)
[11] = MN551 714.286 nM, Cycle 19 (90 min), n=1
[12] = MN551 781.25 nM, Cycle 6 (25 min)
[13] = MN551 1000 nM, Cycle 6 (25 min)
[14] = MN551 1000 nM, Cycle 12 (55 min)
[15] = MN551 1000 nM, Cycle 19 (90 min), n=1

T1 sequence (O14508 32-198): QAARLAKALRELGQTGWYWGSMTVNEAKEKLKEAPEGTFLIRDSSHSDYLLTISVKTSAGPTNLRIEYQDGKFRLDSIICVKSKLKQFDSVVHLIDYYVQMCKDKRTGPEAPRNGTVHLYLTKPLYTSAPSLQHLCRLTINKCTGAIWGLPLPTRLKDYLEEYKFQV
T1 sequence (Q15370 1-104 partner limits assumed): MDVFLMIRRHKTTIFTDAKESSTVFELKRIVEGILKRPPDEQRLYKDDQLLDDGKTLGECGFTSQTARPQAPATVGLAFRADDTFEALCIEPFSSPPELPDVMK
T1 sequence (Q15369 17-112 partner limits assumed): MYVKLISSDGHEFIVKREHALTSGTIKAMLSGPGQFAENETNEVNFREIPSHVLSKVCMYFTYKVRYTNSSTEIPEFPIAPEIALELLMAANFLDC

O=C(CCl)Nc1cccc(CNC(=O)[C@H](Cc2ccc(OP(=O)(O)O)cc2)NC(=O)Cc2ccc(F)cc2)c1 [MN551]
Fb (MN551 260.308 nM, Cycle 6 (25 min)): 0.9065 and 0.9342 and 0.9573 | Anisotropy [1]: 262.5 and 259.9 and 257.4 | Fb [1]: 0.8574 and 0.8591 and 0.8311 | Anisotropy data 485,520,520 [2]: 254.9 and 255 and 252.4 | Anisotropy normalised (0 nM MN551 = 1, free probe = 0) [2]: 0.8373 and 0.852 and 0.8299 | Anisotropy normalised (0 nM MN551 = 1, free probe = 0) (MN551 260.308 nM, Cycle 20 (95 min), n=1): 0.8182 and 0.7955 and 0.8068 | Anisotropy based on Raw Data (485) (MN551 364.432 nM, Cycle 7 (30 min)): 266.3 and 261.1 and 263 | Normalised anisotropy (0 nM MN551 = 1, free probe = 0) (MN551 364.432 nM, Cycle 13 (60 min), n=1): 0.8082 and 0.788 and 0.7925 | Normalised anisotropy (0 nM MN551 = 1, free probe = 0) (MN551 364.432 nM, Cycle 14 (65 min), n=1): 0.8132 and 0.8023 and 0.7716 | Normalised anisotropy (0 nM MN551 = 1, free probe = 0) (MN551 364.432 nM, Cycle 15 (70 min), n=1): 0.8109 and 0.8027 and 0.7817 | Fb, fraction bound (MN551 364.432 nM, Cycle 3 (10 min)): 0.8953 and 0.9033 and 0.8725 | Anisotropy data 485,520,520 [3]: 261.2 and 252.2 and 253.6 | Fb [3]: 0.8702 and 0.8783 and 0.9647 | Anisotropy [4]: 258 and 255.4 and 255.3 | Fb [4]: 0.8155 and 0.8159 and 0.8109 | Anisotropy data 485,520,520 [5]: 251.5 and 248.8 and 245.6 | Anisotropy normalised (0 nM MN551 = 1, free probe = 0) [5]: 0.8046 and 0.79 and 0.7638 | Anisotropy normalised (0 nM MN551 = 1, free probe = 0) (MN551 364.432 nM, Cycle 20 (95 min), n=1): 0.7592 and 0.7548 and 0.7585 | Anisotropy based on Raw Data (485) (MN551 390.625 nM, Cycle 7 (30 min)): 269.8 and 271.4 and 267.4 | Fb, fraction bound (MN551 390.625 nM, Cycle 2 (5 min)): 0.9917 and 0.9704 and 0.9496 | Fb, fraction bound (MN551 390.625 nM, Cycle 3 (10 min)): 0.9862 and 0.9672 and 0.9437 | Anisotropy (MN551 390.625 nM, Cycle 12 (55 min)): 270.6 and 267.1 and 265.1 | Anisotropy based on Raw Data (485) (MN551 510.204 nM, Cycle 7 (30 min)): 261.7 and 259.3 and 261 | Anisotropy based on Raw Data (485) (MN551 510.204 nM, Cycle 8 (35 min)): 261.5 and 258.9 and 258.8 | Normalised anisotropy (0 nM MN551 = 1, free probe = 0) (MN551 510.204 nM, Cycle 13 (60 min), n=1): 0.7484 and 0.7226 and 0.7442 | Normalised anisotropy (0 nM MN551 = 1, free probe = 0) (MN551 510.204 nM, Cycle 14 (65 min), n=1): 0.7755 and 0.7213 and 0.7092 | Normalised anisotropy (0 nM MN551 = 1, free probe = 0) (MN551 510.204 nM, Cycle 15 (70 min), n=1): 0.7476 and 0.7154 and 0.7087 | Fb, fraction bound (MN551 510.204 nM, Cycle 3 (10 min)): 0.8721 and 0.8651 and 0.8107 | Anisotropy data 485,520,520 [6]: 257.3 and 244.3 and 249.4 | Fb [6]: 0.8302 and 0.8538 and 0.9038 | Anisotropy [7]: 252.2 and 248.3 and 248.9 | Fb [7]: 0.7614 and 0.7478 and 0.7495 | Anisotropy data 485,520,520 [8]: 243.6 and 240.1 and 238.9 | Anisotropy normalised (0 nM MN551 = 1, free probe = 0) [8]: 0.7286 and 0.703 and 0.6987 | Anisotropy normalised (0 nM MN551 = 1, free probe = 0) (MN551 510.204 nM, Cycle 20 (95 min), n=1): 0.6867 and 0.6831 and 0.6676 | Anisotropy based on Raw Data (485) (MN551 714.286 nM, Cycle 7 (30 min)): 257.5 and 256.2 and 255.9 | Anisotropy based on Raw Data (485) (MN551 714.286 nM, Cycle 8 (35 min)): 256 and 254.7 and 255.3 | Normalised anisotropy (0 nM MN551 = 1, free probe = 0) (MN551 714.286 nM, Cycle 14 (65 min), n=1): 0.7189 and 0.6657 and 0.6727 | Normalised anisotropy (0 nM MN551 = 1, free probe = 0) (MN551 714.286 nM, Cycle 15 (70 min), n=1): 0.6832 and 0.6708 and 0.6558 | Fb, fraction bound (MN551 714.286 nM, Cycle 3 (10 min)): 0.8072 and 0.8019 and 0.7869 | Anisotropy data 485,520,520 [9]: 249.8 and 245.7 and 246.8 | Fb [9]: 0.8082 and 0.8312 and 0.8793 | Anisotropy [10]: 245.4 and 244 and 241.6 | Fb [10]: 0.698 and 0.7066 and 0.6795 | Fb (MN551 714.286 nM, Cycle 13 (60 min)): 0.6773 and 0.6691 and 0.6737 | Anisotropy data 485,520,520 [11]: 235.3 and 235.8 and 229.2 | Anisotropy normalised (0 nM MN551 = 1, free probe = 0) [11]: 0.6487 and 0.66 and 0.6045 | Anisotropy normalised (0 nM MN551 = 1, free probe = 0) (MN551 714.286 nM, Cycle 20 (95 min), n=1): 0.6238 and 0.6124 and 0.601 | Anisotropy based on Raw Data (485) (MN551 781.25 nM, Cycle 7 (30 min)): 264.8 and 264.3 and 257.5 | Fb, fraction bound (MN551 781.25 nM, Cycle 2 (5 min)): 0.8861 and 0.914 and 0.9072 | Fb, fraction bound (MN551 781.25 nM, Cycle 3 (10 min)): 0.8842 and 0.8716 and 0.861 | Anisotropy data 485,520,520 [12]: 261.7 and 267.5 and 267.1 | Fb [12]: 0.8257 and 0.8639 | Anisotropy (MN551 781.25 nM, Cycle 12 (55 min)): 254.6 and 253.4 and 251.5 | Anisotropy based on Raw Data (485) (MN551 1000 nM, Cycle 7 (30 min)): 254.7 and 249.8 and 251.7 | Anisotropy based on Raw Data (485) (MN551 1000 nM, Cycle 8 (35 min)): 251.7 and 250.9 and 246 | Normalised anisotropy (0 nM MN551 = 1, free probe = 0) (MN551 1000 nM, Cycle 14 (65 min), n=1): 0.5934 and 0.6045 and 0.5749 | Normalised anisotropy (0 nM MN551 = 1, free probe = 0) (MN551 1000 nM, Cycle 15 (70 min), n=1): 0.5741 and 0.5664 and 0.5538 | Fb, fraction bound (MN551 1000 nM, Cycle 3 (10 min)): 0.7627 and 0.7851 and 0.7345 | Anisotropy data 485,520,520 [13]: 247.9 and 241.8 and 240.6 | Fb [13]: 0.7763 and 0.812 | Anisotropy [14]: 234.4 and 236.4 and 233.2 | Fb [14]: 0.5955 and 0.6337 and 0.5988 | Fb (MN551 1000 nM, Cycle 13 (60 min)): 0.5631 and 0.5917 and 0.6014 | Anisotropy data 485,520,520 [15]: 220.4 and 223.8 and 219.7 | Anisotropy normalised (0 nM MN551 = 1, free probe = 0) [15]: 0.5053 and 0.54 and 0.5121 | Anisotropy normalised (0 nM MN551 = 1, free probe = 0) (MN551 1000 nM, Cycle 20 (95 min), n=1): 0.4971 and 0.4767 and 0.4821

From paper PMC10564737, “Structure-based design of a phosphotyrosine-masked covalent ligand targeting the E3 ligase SOCS2” (Nature Communications, 2023)
